Read-outs that look alike come from different tables or passages of the source.

This is an account of results in patent US10377783B2, “Methods and compounds for enhancing contrast in magnetic resonance imaging (MRI)” (priority 2015, dated 2019).

The conditions of series [1]: cited from earlier work; for Clearance (route) / Clearance (time; half-life): in vivo; for uptake by hepatocytes: during excretion.
For another series, the target named is serum albumin (Homo sapiens, UniProt P02768). To be noted: cited from earlier work.
Chain of serum albumin (P02768 25-609): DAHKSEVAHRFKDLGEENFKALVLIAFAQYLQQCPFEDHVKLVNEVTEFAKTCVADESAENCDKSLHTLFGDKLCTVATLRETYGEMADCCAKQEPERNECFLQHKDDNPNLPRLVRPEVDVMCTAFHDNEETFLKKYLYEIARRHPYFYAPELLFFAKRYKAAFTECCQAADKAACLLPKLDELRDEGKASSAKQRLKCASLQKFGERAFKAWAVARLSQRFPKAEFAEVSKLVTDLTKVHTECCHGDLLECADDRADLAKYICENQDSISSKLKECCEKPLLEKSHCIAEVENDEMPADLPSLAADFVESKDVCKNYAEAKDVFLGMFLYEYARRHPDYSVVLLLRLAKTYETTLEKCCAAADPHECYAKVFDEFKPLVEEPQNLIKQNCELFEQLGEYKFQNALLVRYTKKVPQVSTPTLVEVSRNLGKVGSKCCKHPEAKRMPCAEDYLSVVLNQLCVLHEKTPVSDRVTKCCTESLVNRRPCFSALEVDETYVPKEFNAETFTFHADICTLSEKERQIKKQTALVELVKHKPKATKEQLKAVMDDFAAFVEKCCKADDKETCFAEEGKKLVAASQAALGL
In series [2] the test system is primary rat renal proximal tubule epithelial cells (RPTECs). Description: In vitro toxicity, MTT assay. The format is cell-based. To be noted: for IC50: rat RPTECs, MTT, read-out: Inhibitory concentration IC50; for cytotoxicity: 10 h time point, compared with 4 h. Here is the method: Gadodiamide (Selleckchem, Lot #02) was used as the reference compound. It is one of the 8 Gd(III)-based MRI agents approved for use in Canada (trade name: Omniscan™).
The test articles and reference compound were weighed and dissolved in the incubation medium to give the highest test concentration of 30 mM. The solution was filter sterilized and diluted to the remaining test concentrations of 10 mM, 3.3 mM, 1.1 mM, 0.36 mM, 0.12 mM and 0.04 mM.
Cryopreserved primary rat renal proximal tubule epithelial cells (RPTECs) (ScienCell Research Laboratories, Carlsbad, Calif.) were used for the study. The rat RPTECs were thawed completely at 37° C., and transferred to epithelial cell medium (ScienCell Research Laboratories, Carlsbad, Calif.) followed by plating in poly-L-lysine coated 96-well plates. The RPTECs were allowed to recover and grow in a cell culture incubator (37° C., humidified atmosphere of 5% carbon dioxide and 95% air) for 3 additional days with a medium change every alternate day.
Following 3 days of plating, the RPTECs were washed once with serum free epithelial cell medium (ScienCell Research Laboratories, Carlsbad, Calif.) followed by treatment with the test, reference or control articles for 2, 4, 10 or 24 h. All treatments were performed in triplicate.
Cellular viability and metabolic activity were assessed by using the 3-(4,5-dimethylthiazol-2-yl)-2,5-diphenyl tetrazolium bromide (MTT) uptake assay. A 10× stock of the MTT dye was prepared in phosphate buffered saline (PBS). An aliquot of dye was added 2 hrs before the intended time point to achieve a final 1× concentration, after which incubation (37° C., humidified atmosphere of 5% carbon dioxide and 95% air) continued until the desired time point. For the 2 hr time point, the aliquot of dye was added immediately after the test articles. Following incubation, all media was aspirated from the wells and the plates were allowed to dry. The resulting formazan crystals were dissolved in DMSO using an orbital shaker, and the absorbance at 570 nm was measured using a Victor ^3V multilabel plate reader (reference wavelength=650 nm).
The inhibitory concentration (IC50, the concentration resulting in 50% toxicity) was determined by plotting log concentration vs. relative viability, followed by non-linear regression of the curve using Graph Pad Prism 5.0.
An in vitro toxicity study was performed in order to evaluate the cytotoxic potential of several of the agents in primary rat renal proximal tubule epithelial cells (RPTECs), prior to performing in vivo studies. The Mn^II and Gd^III complexes of L1, L2 and L6 (complexes 1, 2, 5, and 7-9) were evaluated at seven concentrations (30 mM, 10 mM, 3.3 mM, 1.1 mM, 0.36 mM, 0.12 mM and 0.04 mM) after 2, 4, 10 and 24 hours of treatment in rat RPTECs. The MTT assay was used as an indicator of viability. The nephrotoxic potential of the test articles was compared to the toxicity observed in the presence of the approved agent Gadodiamide. The results are summarized in Table 4, where the inhibitory concentration (IC50, the concentration resulting in 50% toxicity) was determined by plotting log concentration vs. relative viability.
On the technique in general: Formazan colour is commonly taken as a measure of viable cells.

Series [3] can be described thus: Relaxivity measurements (T1 and T2 relaxation times, Bruker minispec mq60/mq20). The following applies: aqueous solution, 37° C. The format is physicochemical. Here is the method:
T1 and T2 relaxation times were measured at the STTARR Innovation Centre in Toronto, Canada using a Bruker minispec mq60, and at the Bruker Showroom in Milton, Canada using a Bruker minispec mq20. Measurements were carried out on a series of 6 aqueous dilutions between 0-5 mM.
The T1 and T2 relaxation times of the 8 soluble, pure complexes were measured in aqueous solution at 37° C., at both 20 and 60 MHz.

Take `CNC[C@H](O)[C@@H](O)[C@H](O)[C@H](O)CO.O=C([O-])CN1CCN(CC(=O)[O-])CCN(CC(=O)O)CCN(CC(=O)[O-])CC1.[Gd+3]` [Dotarem, gadoterate]: in series [1], the “Clearance (route)” value was “renal”.

`COCCNC(=O)CN(CCN(CCN(CC(=O)[O-])CC(=O)NCCOC)CC(=O)[O-])CC(=O)[O-].[Gd+3]` [OptiMARK, gadoversetamide]: in series [1], the “Clearance (route)” value was “renal” and the “Clearance (time; half-life)” value was 1.73 h.

For the compound `CCOc1ccc(CC(CN(CCN(CC(=O)[O-])CC(=O)[O-])CC(=O)[O-])N(CC(=O)[O-])CC(=O)[O-])cc1.[Gd+3].[Na+].[Na+]` (stereo not shown) [Eovist or Primovist, gadoxetate], in series [1], the uptake by hepatocytes entry was “taken up by hepatocytes during excretion” and the “Clearance (route)” value is listed as “renal/hepatic”.

Regarding `O=C([O-])CN(CCN(CC(=O)[O-])CC(=O)O)CCN(CC(=O)[O-])CC(=O)O.[Gd+3]` [Magnevist, gadopentetate], in series [1], the “Clearance (route)” value was “renal” and the “Clearance (time; half-life)” value was 1.60 h.

On to `O=C([O-])CN(CCN(CC(=O)[O-])C[C@H](COP(=O)([O-])OC1CCC(c2ccccc2)(c2ccccc2)CC1)N(CC(=O)[O-])CC(=O)[O-])CC(=O)[O-].[Gd+3].[H+].[H+].[H+]` [Ablavar or Vasovist, gadofosveset], for which, in series [1], the “Clearance (route)” value is “renal/hepatic” and the “Clearance (time; half-life)” value is 18.5 h. For the same compound, at serum albumin, the “binding to serum albumin” value was “selectively binds to the blood protein serum albumin”.

Turning to `CNC[C@H](O)[C@@H](O)[C@H](O)[C@H](O)CO.CNC[C@H](O)[C@@H](O)[C@H](O)[C@H](O)CO.O=C([O-])CN(CCN(CC(=O)[O-])CC(=O)O)CCN(CC(=O)O)C(COCc1ccccc1)C(=O)[O-].[Gd+3]` (stereo not shown) [Multihance, gadobenate], in series [1], the uptake by hepatocytes result was “taken up by hepatocytes during excretion”, the “Clearance (route)” value is “renal/hepatic” and the “Clearance (time; half-life)” value was 1.2 to 2 h.

`CNC(=O)CN(CCN(CCN(CC(=O)[O-])CC(=O)NC)CC(=O)[O-])CC(=O)[O-].[Gd+3]` [Gadodiamide, gadodiamide, reference compound]: in series [1], the “Clearance (route)” value is “renal” and the “Clearance (time; half-life)” value is 1.30 h. For the same compound, in series [2] (2 and 4 h of treatment, 0.04-30 mM), the “nephrotoxicity” value was “did not show significant nephrotoxicity”. Besides, in series [2] (10 hr treatment), the IC50 is > 30 mM. For the same compound, the “cytotoxicity” value in series [2] is reported as “showed more toxicity than earlier time points”. Further, the “nephrotoxic effects” value in series [2] (24 h of treatment) is reported as “exhibiting the least nephrotoxic effects”. Further, the IC50 in series [2] (24 hr treatment) amounted to 31 mM.

On to `CC1=Nc2ccccc2OCCOCCOc2ccccc2N=C(C)c2cccc1n2.O.O.[Cl-].[Cl-].[Mn+2]` [Compound 5, [MnL6Cl2].2H2O], for which the IC50 in series [2] (2 hr treatment) is 1.25 mM; in series [2] (4 hr treatment) it was 0.67 mM; in series [2] (10 hr treatment), 1.39 mM; in series [2] (24 hr treatment), 0.21 mM. For the same compound, the “cytotoxicity” value in series [2] is listed as “exhibited a slight reduction in toxicity”. For the same compound, the r1 relaxivity in series [3] (20 MHz) was determined as 7.22 s⁻¹ mM⁻¹; in series [3] (60 MHz) it was 2.97 s⁻¹ mM⁻¹.

`O=C([O-])CN1CCN(CC(=O)[O-])CCN([C@H](CO)[C@H](O)CO)CCN(CC(=O)[O-])CC1.[Gd+3]` (racemic) [Gadavist, gadobutrol]: in series [1], the “Clearance (route)” value is “renal”.

As for `CC1=NCCNCCNCCN=C(C)c2cccc1n2.O.O.O.[Cl-].[Cl-].[Cl-].[Gd+3]` [Compound 7, [GdL1Cl3].3H2O], the IC50 in series [2] (2 hr treatment) was 8.15 mM; in series [2] (4 hr treatment), 3.37 mM; in series [2] (10 hr treatment), 8.53 mM; in series [2] (24 hr treatment) it was 0.92 mM. Moreover, in series [2], the “cytotoxicity” value is “exhibited a slight reduction in toxicity”. In addition, the results for the r1 relaxivity in series [3] (20 MHz) and in series [3] (60 MHz) were 6.43 s⁻¹ mM⁻¹ and 5.58 s⁻¹ mM⁻¹, respectively.

Take `CC(O)CN1CCN(CC(=O)[O-])CCN(CC(=O)[O-])CCN(CC(=O)[O-])CC1.[Gd+3]` (stereo not shown) [Prohance, gadoteridol]: in series [1], the “Clearance (route)” value is given as “renal” and the “Clearance (time; half-life)” value is 1.57 h.
